Active and inactive are the calls of the source. The calls are words filed in the database; no cut-off is given here.
Assays:
[1] = biological target: Cyclin-dependent kinase 1/cyclin B1 (Homo sapiens, UniProt P06493); assay: biochemical
[2] = system: HCT-116; assay: Induction of cell cycle arrest in human HCT116 cells assessed as accumulation at G2/M phase at 0.15 to […] after 24 hrs by propidium iodide-staining based flow cytometry relative to control; format: functional
[3] = system: HCT-116; assay: Induction of cell cycle arrest in human HCT116 cells assessed as reduction in accumulation at G1 phase at 0.15 to […] after 24 hrs by propidium iodide-staining based flow cytometry; format: functional
[4] = biological target: Cyclin-dependent kinase 4/cyclin D1 (Homo sapiens, UniProt P11802); assay: biochemical
[5] = biological target: CDK7/Cyclin H/MNAT1 (Homo sapiens, UniProt P50613); assay: biochemical
[6] = biological target: Cyclin-dependent kinase 2/cyclin E1 (Homo sapiens, UniProt P24941); assay: biochemical
[7] = biological target: CDK9/cyclin T1 (Homo sapiens, UniProt P50750); assay: biochemical
[8] = biological target: CDK2/Cyclin A2 (Homo sapiens, UniProt P24941)
[9] = biological target: Cyclin-dependent kinase 5/CDK5 activator 1 (Homo sapiens, UniProt Q00535); assay: biochemical
[10] = biological target: Cyclin-dependent kinase 9 (Homo sapiens) (UniProt P50750); assay: Inhibition of CDK9 in human HCT116 cells assessed as induction of dephosphorylation of RNA polymerase 2 S2/S5 residues at 0.5 to 1 uM after 24 hrs by Western blot analysis; format: cell-based
[11] = system: HCT-116; assay: Induction of cell cycle arrest in CDK2 knocked out human HCT116 cells assessed as accumulation at G2/M phase at 0.5 to 3.9 after 24 hrs by propidium iodide-staining based flow cytometry; format: functional
[12] = biological target: Cyclin-dependent kinase 5/CDK5 activator 1 (Homo sapiens) (UniProt Q00535+Q15078); assay: Inhibition of CDK5/p25 in human HCT116 cells assessed as induction of dephosphorylation of FAK at Ser732 residue at 0.5 to 1 uM after 24 hrs by Western blot analysis; format: cell-based
[13] = system: HCT-116; assay: Induction of cell cycle arrest in human HCT116 cells assessed as accumulation at G2/M phase at 0.07 to 0.8 uM after 24 hrs by propidium iodide-staining based flow cytometry relative to control; format: functional
[14] = biological target: Cyclin-dependent kinase 7 (Homo sapiens) (UniProt P50613); assay: Inhibition of CDK7 in human HCT116 cells assessed as induction of dephosphorylation of RNA polymerase 2 S2/S5 residues at 0.5 to 1 uM after 24 hrs by Western blot analysis; format: cell-based
[15] = system: HCT-116; assay: Induction of cell cycle arrest in human HCT116 cells assessed as reduction in accumulation at G1 phase 1.25 to 20 uM after 24 hrs by propidium iodide-staining based flow cytometry; format: functional
[16] = system: HCT-116; assay: Induction of cell cycle arrest in human HCT116 cells assessed as accumulation at G2/M phase 1.25 to 20 uM after 24 hrs by propidium iodide-staining based flow cytometry relative to control; format: functional
[17] = system: HCT-116; assay: Induction of cell cycle arrest in human HCT116 cells assessed as reduction in accumulation at G1 phase at 0.5 to 5.9 uM after 24 hrs by propidium iodide-staining based flow cytometry; format: functional; design: scale not given: the % may be the effect or the level left
[18] = biological target: Cyclin-dependent kinase 6 (Homo sapiens) (UniProt Q00534); assay: Inhibition of CDK6 (unknown origin) at 10 uM
[19] = biological target: Cyclin-dependent kinase 4 (Homo sapiens) (UniProt P11802); assay: Inhibition of CDK4 (unknown origin) at 10 uM
[20] = biological target: T1, Aurora kinase B (Homo sapiens, UniProt Q96GD4); assay: biochemical
[21] = biological target: T1, Aurora kinase B; assay: Inhibition of AURORA B in human HCT116 cells assessed as reduction in histone H3 phosphorylation at S10 residues after 24 hrs by Western blot analysis; format: cell-based
[22] = biological target: T2, Aurora kinase A (Homo sapiens, UniProt O14965); assay: Inhibition of GST-tagged AURORA A (unknown origin) expressed in baculovirus infected Sf9 cells using MBP as substrate
T2 sequence (O14965 whole entry): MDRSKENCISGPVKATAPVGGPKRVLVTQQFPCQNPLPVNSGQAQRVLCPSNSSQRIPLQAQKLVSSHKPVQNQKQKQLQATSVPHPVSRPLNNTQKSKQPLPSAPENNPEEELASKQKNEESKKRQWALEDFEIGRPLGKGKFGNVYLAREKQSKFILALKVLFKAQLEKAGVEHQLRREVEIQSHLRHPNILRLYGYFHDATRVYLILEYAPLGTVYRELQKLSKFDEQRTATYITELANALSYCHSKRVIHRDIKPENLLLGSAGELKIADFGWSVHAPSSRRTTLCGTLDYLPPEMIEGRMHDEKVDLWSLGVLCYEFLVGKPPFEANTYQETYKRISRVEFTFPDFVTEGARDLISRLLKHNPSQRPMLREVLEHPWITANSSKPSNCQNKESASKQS

[23] = system: HCT-116; assay: Induction of cell cycle arrest in human HCT116 cells assessed as accumulation at 8N stage at 1.25 to 5 uM after 24 hrs by propidium iodide-staining based flow cytometry; format: functional
[24] = organism: Homo sapiens; assay: Selectivity index, ratio of IC50 for inhibition of His-tagged CDK1/cyclin B1 (unknown origin) expressed in Baculovirus infected Sf9 cells to IC50 for inhibition of GST-tagged AURORA A (unknown origin) expressed in baculovirus infected Sf9 cells
[25] = system: HCT-116; assay: Induction of cell cycle arrest in human HCT116 cells assessed as accumulation at G2/M phase after 24 hrs by propidium iodide-staining based flow cytometry; format: functional
[26] = biological target: Cyclin-dependent kinase 2 (Homo sapiens, UniProt P24941)
[27] = organism: Homo sapiens; assay: Selectivity index, ratio of IC50 for inhibition of His-tagged CDK1/cyclin B1 (unknown origin) expressed in Baculovirus infected Sf9 cells to IC50 for inhibition of GST-tagged AURORA B (unknown origin) expressed in baculovirus infected Sf9 cells
[28] = biological target: Cyclin-dependent kinase 1 (Homo sapiens) (UniProt P06493); assay: Inhibition of CDK1 (unknown origin) at 10 uM

Sequence of CDK9/cyclin T1 (O60563 whole entry): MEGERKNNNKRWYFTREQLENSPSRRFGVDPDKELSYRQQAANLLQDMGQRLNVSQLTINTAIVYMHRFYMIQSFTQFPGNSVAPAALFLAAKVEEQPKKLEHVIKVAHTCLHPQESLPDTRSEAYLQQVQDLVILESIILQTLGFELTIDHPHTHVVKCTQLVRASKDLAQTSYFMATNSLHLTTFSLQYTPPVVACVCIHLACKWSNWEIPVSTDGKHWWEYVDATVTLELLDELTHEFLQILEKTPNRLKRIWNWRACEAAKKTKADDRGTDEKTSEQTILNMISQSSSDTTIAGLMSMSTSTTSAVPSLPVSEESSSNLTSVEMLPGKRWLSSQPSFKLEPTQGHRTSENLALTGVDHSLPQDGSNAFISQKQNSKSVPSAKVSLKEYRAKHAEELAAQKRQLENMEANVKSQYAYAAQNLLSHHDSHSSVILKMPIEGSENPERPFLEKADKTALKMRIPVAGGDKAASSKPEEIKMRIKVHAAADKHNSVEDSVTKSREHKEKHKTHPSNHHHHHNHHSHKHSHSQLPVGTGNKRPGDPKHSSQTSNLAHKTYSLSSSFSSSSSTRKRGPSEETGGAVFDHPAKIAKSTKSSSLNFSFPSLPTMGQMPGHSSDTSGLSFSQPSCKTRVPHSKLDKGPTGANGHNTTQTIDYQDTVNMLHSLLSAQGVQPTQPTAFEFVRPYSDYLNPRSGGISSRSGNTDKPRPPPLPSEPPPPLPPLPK
Sequence of CDK9/cyclin T1 (P50750 whole entry): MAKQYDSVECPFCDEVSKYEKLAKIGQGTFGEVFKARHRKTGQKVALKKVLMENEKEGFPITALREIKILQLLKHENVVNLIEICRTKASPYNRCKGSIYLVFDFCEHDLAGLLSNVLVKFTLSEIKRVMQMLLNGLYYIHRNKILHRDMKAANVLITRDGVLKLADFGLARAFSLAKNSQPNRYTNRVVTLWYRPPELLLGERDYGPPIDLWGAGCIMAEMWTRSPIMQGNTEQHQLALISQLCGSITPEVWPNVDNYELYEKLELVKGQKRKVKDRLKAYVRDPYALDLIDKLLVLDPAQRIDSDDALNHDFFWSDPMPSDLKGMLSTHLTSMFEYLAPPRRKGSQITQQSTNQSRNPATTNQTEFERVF
Sequence of Cyclin-dependent kinase 1/cyclin B1 (P06493 whole entry): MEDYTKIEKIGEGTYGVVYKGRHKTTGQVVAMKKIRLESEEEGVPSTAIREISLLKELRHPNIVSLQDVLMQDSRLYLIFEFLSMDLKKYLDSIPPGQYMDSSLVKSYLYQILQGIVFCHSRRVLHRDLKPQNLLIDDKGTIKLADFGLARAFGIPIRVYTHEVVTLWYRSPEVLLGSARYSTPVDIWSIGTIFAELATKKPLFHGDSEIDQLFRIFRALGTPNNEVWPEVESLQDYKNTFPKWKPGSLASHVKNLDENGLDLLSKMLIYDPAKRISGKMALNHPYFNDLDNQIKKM
Sequence of Cyclin-dependent kinase 1/cyclin B1 (P14635 whole entry, further chain): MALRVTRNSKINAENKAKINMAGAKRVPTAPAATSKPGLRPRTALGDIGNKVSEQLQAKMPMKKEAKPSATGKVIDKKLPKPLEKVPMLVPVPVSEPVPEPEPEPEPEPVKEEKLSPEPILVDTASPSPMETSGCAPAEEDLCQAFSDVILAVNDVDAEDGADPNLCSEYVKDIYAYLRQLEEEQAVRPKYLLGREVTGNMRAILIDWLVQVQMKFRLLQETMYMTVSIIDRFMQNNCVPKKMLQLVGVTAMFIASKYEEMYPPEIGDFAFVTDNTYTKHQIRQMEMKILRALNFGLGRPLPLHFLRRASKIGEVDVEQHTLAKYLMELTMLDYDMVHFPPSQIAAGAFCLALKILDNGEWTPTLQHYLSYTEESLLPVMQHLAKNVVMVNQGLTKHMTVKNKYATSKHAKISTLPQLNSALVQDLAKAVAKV
Sequence of Cyclin-dependent kinase 5/CDK5 activator 1 (Q00535 whole entry): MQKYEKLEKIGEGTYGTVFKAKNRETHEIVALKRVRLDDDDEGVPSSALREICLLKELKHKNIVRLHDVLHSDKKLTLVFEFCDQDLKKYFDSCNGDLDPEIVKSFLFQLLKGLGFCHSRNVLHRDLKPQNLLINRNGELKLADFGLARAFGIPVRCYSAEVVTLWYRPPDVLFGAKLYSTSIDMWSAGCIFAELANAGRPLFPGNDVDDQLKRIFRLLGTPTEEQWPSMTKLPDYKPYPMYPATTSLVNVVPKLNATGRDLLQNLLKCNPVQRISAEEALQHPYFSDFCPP
Sequence of Cyclin-dependent kinase 5/CDK5 activator 1 (Q15078 whole entry, further chain): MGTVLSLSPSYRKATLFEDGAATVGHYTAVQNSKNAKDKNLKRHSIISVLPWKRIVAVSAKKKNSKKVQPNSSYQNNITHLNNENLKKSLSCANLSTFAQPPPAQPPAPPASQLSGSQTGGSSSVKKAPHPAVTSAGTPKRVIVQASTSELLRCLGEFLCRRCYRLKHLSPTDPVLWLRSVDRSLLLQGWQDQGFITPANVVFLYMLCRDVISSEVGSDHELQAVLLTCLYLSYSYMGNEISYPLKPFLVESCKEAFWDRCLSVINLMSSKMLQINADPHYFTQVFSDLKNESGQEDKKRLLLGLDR
Sequence of CDK7/Cyclin H/MNAT1 (P51946 whole entry): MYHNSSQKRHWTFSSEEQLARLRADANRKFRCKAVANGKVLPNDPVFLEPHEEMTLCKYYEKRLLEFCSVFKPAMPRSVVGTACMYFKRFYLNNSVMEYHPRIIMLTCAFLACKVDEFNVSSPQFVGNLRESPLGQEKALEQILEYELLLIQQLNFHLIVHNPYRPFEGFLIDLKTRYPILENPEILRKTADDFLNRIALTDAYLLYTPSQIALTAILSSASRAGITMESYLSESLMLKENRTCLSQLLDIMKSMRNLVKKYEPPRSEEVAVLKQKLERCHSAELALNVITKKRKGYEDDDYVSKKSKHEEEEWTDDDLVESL
Sequence of CDK7/Cyclin H/MNAT1 (P50613 whole entry): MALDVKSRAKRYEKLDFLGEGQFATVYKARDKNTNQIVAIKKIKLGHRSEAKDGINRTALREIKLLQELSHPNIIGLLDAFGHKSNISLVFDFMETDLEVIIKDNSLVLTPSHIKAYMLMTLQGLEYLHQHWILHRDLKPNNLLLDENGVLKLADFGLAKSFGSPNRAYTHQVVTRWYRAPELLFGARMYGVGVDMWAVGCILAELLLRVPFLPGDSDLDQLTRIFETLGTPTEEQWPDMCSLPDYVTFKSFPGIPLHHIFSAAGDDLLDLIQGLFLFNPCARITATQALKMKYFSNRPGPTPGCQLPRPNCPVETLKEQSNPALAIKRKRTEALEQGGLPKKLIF
Sequence of CDK7/Cyclin H/MNAT1 (P51948 whole entry, further chain): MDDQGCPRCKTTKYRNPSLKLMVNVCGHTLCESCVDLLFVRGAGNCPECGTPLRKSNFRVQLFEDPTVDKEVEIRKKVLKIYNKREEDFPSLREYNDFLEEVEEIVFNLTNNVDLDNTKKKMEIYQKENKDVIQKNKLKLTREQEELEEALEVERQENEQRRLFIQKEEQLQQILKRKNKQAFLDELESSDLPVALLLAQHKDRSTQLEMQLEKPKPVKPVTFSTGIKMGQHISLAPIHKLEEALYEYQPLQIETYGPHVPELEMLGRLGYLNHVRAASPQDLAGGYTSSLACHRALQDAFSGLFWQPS
Sequence of Cyclin-dependent kinase 4/cyclin D1 (P11802 whole entry): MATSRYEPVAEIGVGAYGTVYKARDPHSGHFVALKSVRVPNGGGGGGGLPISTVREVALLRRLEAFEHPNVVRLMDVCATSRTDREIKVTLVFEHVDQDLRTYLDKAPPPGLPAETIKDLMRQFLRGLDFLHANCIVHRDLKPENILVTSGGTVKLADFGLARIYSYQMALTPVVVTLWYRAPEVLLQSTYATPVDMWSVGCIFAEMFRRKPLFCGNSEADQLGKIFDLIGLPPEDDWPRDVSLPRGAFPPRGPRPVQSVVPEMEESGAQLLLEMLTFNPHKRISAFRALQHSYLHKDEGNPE
Sequence of Cyclin-dependent kinase 4/cyclin D1 (P24385 whole entry, further chain): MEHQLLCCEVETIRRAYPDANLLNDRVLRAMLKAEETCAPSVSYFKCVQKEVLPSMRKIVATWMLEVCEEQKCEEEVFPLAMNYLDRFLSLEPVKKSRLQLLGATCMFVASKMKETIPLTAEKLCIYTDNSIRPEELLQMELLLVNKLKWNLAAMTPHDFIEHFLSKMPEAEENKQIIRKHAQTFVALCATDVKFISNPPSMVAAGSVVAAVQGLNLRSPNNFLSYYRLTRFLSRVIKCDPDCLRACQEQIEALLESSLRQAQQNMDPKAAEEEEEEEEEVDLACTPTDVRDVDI
T1 sequence (Q96GD4 whole entry): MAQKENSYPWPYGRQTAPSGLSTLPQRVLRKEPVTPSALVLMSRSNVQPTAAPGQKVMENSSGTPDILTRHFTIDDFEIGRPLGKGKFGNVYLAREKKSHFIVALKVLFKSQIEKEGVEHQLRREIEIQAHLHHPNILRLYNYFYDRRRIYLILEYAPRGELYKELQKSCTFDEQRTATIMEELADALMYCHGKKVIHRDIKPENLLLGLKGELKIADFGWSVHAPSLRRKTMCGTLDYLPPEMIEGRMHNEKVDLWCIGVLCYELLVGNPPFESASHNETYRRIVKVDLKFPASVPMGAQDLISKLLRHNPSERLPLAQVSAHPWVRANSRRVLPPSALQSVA
Sequence of Cyclin-dependent kinase 6 (Homo sapiens) (Q00534 whole entry): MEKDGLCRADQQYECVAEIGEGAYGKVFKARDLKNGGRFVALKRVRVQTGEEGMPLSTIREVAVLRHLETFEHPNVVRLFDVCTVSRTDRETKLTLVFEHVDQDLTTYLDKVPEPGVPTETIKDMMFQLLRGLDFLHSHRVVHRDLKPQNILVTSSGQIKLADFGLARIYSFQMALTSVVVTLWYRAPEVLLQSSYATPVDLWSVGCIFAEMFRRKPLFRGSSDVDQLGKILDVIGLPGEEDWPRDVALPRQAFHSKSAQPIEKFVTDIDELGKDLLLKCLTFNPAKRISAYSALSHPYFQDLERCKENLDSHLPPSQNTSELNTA

Compound	IC50 [1] [nM]	IC50 [4] [nM]	IC50 [5] [nM]	IC50 [6] [nM]	IC50 [7] [nM]	IC50 [8] [nM]	IC50 [9] [nM]	also measured
CN1CCN(c2ccc(Nc3ncc4cc(C#N)c(=O)n(C5CCCC5)c4n3)cc2)CC1 [NARAZACICLIB]	600	18	6000	377	117	55	272	Activity [2]: >=60%; Activity [3]: Active
OCCCNc1cc(-c2ccnc(Nc3cccc(Cl)c3)n2)ccn1	26	216	200	3	–	4	10	inhibition [10]: inactive; Activity [11]: Active; inhibition [12]: Active; Activity [13]: <=30%; inhibition [14]: inactive
O=C1NC(=O)c2c1c1c3ccccc3[nH]c1c1[nH]c3ccccc3c21 [STAUROSPORINE AGLYCON]	964	199	> 20000	–	> 20000	135	936	Activity [15]: Active; Activity [16]: >=60%
CCCOc1cnc(CN/C=C2\C(=O)NC(=O)c3ccc(I)cc32)cc1O	290	38	> 20000	501	1000	71	1200	Activity [17]: <=30%; inhibition [18]: Active; inhibition [19]: Active
CCN(CC)C(=O)c1ccc(Nc2nc(OCC3CCCCC3)c3nc[nH]c3n2)cc1	5800	940	2300	1100	5100	407000	8800	IC50 [20]: 35 nM; inhibition [21]: Dose-dependent effect; IC50 [22]: 67 nM; Activity [23]: Active; Ratio IC50 [24]: 6 to 10; Activity [25]: >=60%; IC50 [26]: 400 nM; Ratio IC50 [27]: 6 to 10; inhibition [28]: 44%

Source: ChEMBL document CHEMBL4308846, “How Selective Are Pharmacological Inhibitors of Cell-Cycle-Regulating Cyclin-Dependent Kinases?” (J Med Chem, 2018)
